Experimental data reported in patent US4803066A, “Antibacterial and/or antifungal compositions for topical application” (Smith & Nephew Associated Companies p.l.c., priority 1986, dated 1989).
Converted amounts (≈) assume the structure as drawn.

Experiments:
[1] = tested on: C. albicans V ATCC 10231; assay: MIC of silver nitrate and clotrimazole individually and in combination (broth, microtitre plate); type: cell-based, Candida albicans; details: for MIC: Individual Agents: alone; for MIC: Individual Agents / MIC: Combination of Agents, Silver nitrate / MIC: Combination of Agents, Clotrimazole: C. albicans V ATCC 10231; for MIC: Combination of Agents, Silver nitrate: in combination with clotrimazole; for MIC: Combination of Agents, Clotrimazole: in combination with silver nitrate
Protocol: (§1) The test method employed was as follows suspensions of each agent or combination of agents were prepared at a range of dilutions in 60% propylene glycol in water. Isosensitest (trade mark) broth was inoculated with a test organism at a concentration of 10^5 organisms per ml and a sample was dispensed into wells of a microliter plate. The range of concentration of test substance or combination was added to the wells so that there was a further 10-fold dilution of the test substance or combination. The plates were incubated for either 24 or 48 hours at 37° C., and the MIC read as the lowest concentration giving no visible growth. For each organism tested all conditions of inoculum preparation, inoculation and incubation were standardised throughout.

[2] = tested on: C. albicans V; assay: MIC of agents individually and in combination (broth, microtitre plate); details: Candida albicans, read-out: MIC: Individual Agents
Protocol: as §1

[3] = tested on: Staph. aureus; assay: microbe, parasite or virus in culture; details: Staphylococcus aureus, read-out: MIC: Individual Agents
Protocol: as §1

[4] = tested on: E. Coli 0029; assay: microbe, parasite or virus in culture; details: Escherichia coli, read-out: MIC: Individual Agents
Protocol: as §1

[5] = tested on: C. albicans I; assay: microbe, parasite or virus in culture; details: Candida albicans, read-out: MIC: Individual Agents
Protocol: as §1

[6] = tested on: Staph. aureus NCTC 10788; assay: microbe, parasite or virus in culture; details: Staphylococcus aureus, NCTC10788, read-out: MIC: Individual Agents
Protocol: as §1

[7] = tested on: Staph. aureus 1300; assay: microbe, parasite or virus in culture; details: Staphylococcus aureus, 1300, read-out: MIC: Individual Agents
Protocol: as §1

[8] = tested on: Enterococcus 0022; assay: microbe, parasite or virus in culture; details: Enterococcus, 0022, read-out: MIC: Individual Agents
Protocol: as §1

[9] = tested on: C. albicans 159; assay: microbe, parasite or virus in culture; details: Candida albicans, 159, read-out: MIC: Individual Agents
Protocol: as §1

Structure (SMILES) | MIC: Individual Agents ([1]; Table 3) [µg/mL] | MIC: Combination of Agents, Silver nitrate ([1]; Table 3) [µg/mL] | MIC: Individual Agents ([1]; Table 4) [µg/mL] | MIC: Combination of Agents, Silver nitrate ([1]; Table 4) [µg/mL] | MIC [2] [µg/mL] | MIC [3] [µg/mL] | MIC [4] [µg/mL] | MIC [5] [µg/mL] | MIC [6] [µg/mL] | MIC [7] [µg/mL] | MIC [8] [µg/mL] | MIC ([1]; Candida albicans, ATCC10231, read-out: MIC: Individual Agents) [µg/mL] | MIC: Combination of Agents, Clotrimazole ([1]; Table 3) [µg/mL] | MIC: Combination of Agents, Clotrimazole ([1]; Table 4) [µg/mL] | MIC [9] [µg/mL]
O=[N+]([O-])[O-].[Ag+] [Silver nitrate, silver nitrate] | 25 | 6.25 | 25 | 6.25 | – | – | – | – | – | – | – | – | – | – | –
Clc1ccc(COC(Cn2ccnc2)c2ccc(Cl)cc2Cl)c(Cl)c1 (centres unmarked) [Miconazole nitrate, 1-{2-(2,4-dichlorophenyl)-2-[(2,4-dichlorophenyl)methoxy]ethyl}-1H-imidazole] | – | – | – | – | 62.5 | > 500 | > 500 | – | – | – | – | – | – | – | –
Clc1ccccc1C(c1ccccc1)(c1ccccc1)n1ccnc1 [Clotrimazole, 1-{(2-chlorophenyl)diphenylmethyl}-1H-imidazole] | – | – | 12.5 | – | 0.5 | – | – | 5 (≈ 14.5 µM) | 100 (≈ 290 µM) | 100 (≈ 290 µM) | 100 (≈ 290 µM) | 12.5 | 3.125 | 3.125 | 25 (≈ 72.5 µM)
